Source: patent US20260103474A1, “NOVEL COMPOUNDS FOR THE DIAGNOSIS OF TDP-43 PROTEINOPATHIES” (AC IMMUNE SA, priority 2022, published 2026)
Like-named read-outs stand apart in the source and are kept apart here.

Columns and labels:
Abeta = biological target: T1, Abeta (Homo sapiens, UniProt P05067); assay: Radiobinding competition assay using Abeta reference compound on AD insoluble fraction of brain homogenates; type: binding; conditions: against [3H]Abeta reference compound
T1 construct: an AD donor with confirmed burden of Tau and Abeta aggregates; from tissue; host or cells: frontal cortex of a human AD donor, Triton/sucrose-insoluble fraction
T1 sequence (P05067 672-713 limits assumed): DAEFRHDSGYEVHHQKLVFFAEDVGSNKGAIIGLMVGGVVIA
Method: (§1) Approximately 4 g of frozen tissue block from frontal cortex brain region was used from an AD donor with confirmed burden of Tau and Abeta aggregates. The tissue was homogenized in three volumes (1:3 w/v) of high salt buffer (50 mM Tris-HCl pH 7.5, 750 mM NaCl, 5 mM EDTA) supplemented with protease inhibitors (Complete; Roche 11697498001) at 4° C. with a glass Dounce homogenizer. The homogenate was transferred into polycarbonate centrifuge bottles (16×76 mm; Beckman 355603) and centrifuged at 100,000×g (38,000 RPM) in an ultracentrifuge (Beckman, XL100K) for 60 minutes at 4° C. using a pre-cooled 70.1 rotor (Beckman, 342184). Pellets were resuspended in high salt buffer supplemented with 1% Triton X-100 and homogenized at 4° C. with a syringe. The homogenates were centrifuged again at 100,000×g (38,000 RPM, 70.1 rotor) for 60 minutes at 4° C. Pellets were resuspended in high salt buffer supplemented with 1% Triton X-100 and 1 M sucrose and homogenized at 4° C. with a syringe. The homogenates were centrifuged at 100,000×g (38,000 RPM, 70.1 rotor) for 60 minutes at 4° C. The resulting pellets containing insoluble fraction were resuspended in PBS (1:2 w/v relative to starting tissue weight), aliquoted and stored at −80° C. until use.
The reaction was performed in assay buffer (50 mM Tris pH 7.5 in 0.9% NaCl, 0.1% BSA) and incubated for two hours at room temperature (RT). Samples in duplicate were then filtered under vacuum in GF/C filter plates (PerkinElmer) to trap the aggregates with the bound radioligand and washed with 100 μL ice-cold 50 mM Tris pH 7.5. The GF/C filters were then dried and scintillation liquid (UltimateGold, PerkinElmer, 6013151) was added in each well. The filters were analyzed on a Microbeta2 scintillation counter (PerkinElmer). Values for the maximal signal were obtained in the absence of non-radiolabeled compound, while 100% displacement was obtained using 1 μM of non-radiolabeled reference compound. Ki values were calculated by nonlinear regression, using a one site—fit Ki model in Prism V7 (GraphPad).

[1] = tested on: AD brain homogenates (containing Abeta and Tau); assay: Radiobinding assay (direct binding, Kd) on AD insoluble fraction of brain homogenates; set-up: species or system human; conditions: saturation binding of tritiated compound
Method: as §1, with “The homogenates were centrifuged at 100,000×g (38,000 RPM, 70.1 rotor) for 60 minutes at 4° C. The resulting pellets containing insoluble fraction were resuspended in PBS (1:2 w/v relative to starting tissue weight), aliquoted and stored at −80° C. until use.” left out
The AD insoluble fraction was incubated with [^3H]Compound 1, [^3H]Compound 17 or [^3H]Abeta reference compound ([^3H]Abeta ref) at different concentrations. […] The filters were analyzed on a Microbeta scintillation counter (PerkinElmer). Specific binding was calculated by subtracting the non-specific signal from the total signal. […]

[2] = cells printed in μM, read-out: Ki on AD brain homogenates

Direct binding in AD brain homogenates (containing Abeta and Tau) [1]	SMILES	Ki (Abeta; [2])	Ki (Abeta; read-out: Ki (nM) on AD brain homogenates)
–	O=C1c2sc(-c3ccc(N4CCC(CO)CC4)nc3F)nc2CCN1c1cccnc1 [Compound 17, 2-(2-fluoro-6-(4-(hydroxymethyl)piperidin-1-yl)pyridin-3-yl)-5-(pyridin-3-yl)-6,7-dihydrothiazolo[5,4-c]pyridin-4(5H)-one]	> 1 µM	–
No significant binding	[3H]C([3H])(O)C1CCN(c2ccc(-c3nc4c(s3)C(=O)N(c3cccnc3)CC4)c(F)n2)CC1 [[^3H]-Compound 17, 2-(2-fluoro-6-(4-(hydroxymethyl-t2)piperidin-1-yl)pyridin-3-yl)-5-(pyridin-3-yl)-6,7-dihydrothiazolo[5,4-c]pyridin-4(5H)-one]	–	–
No significant binding	[3H]c1cncc(N2CCc3nc(-c4cc([3H])c(N5CC[C@@H](F)C5)nc4F)sc3C2=O)c1 [[^3H]-Compound 1, tritiated 2-[2-fluoro-6-[(3R)-3-fluoropyrrolidin-1-yl]-3-pyridyl]-5-(3-pyridyl)-6,7-dihydrothiazolo[5,4-c]pyridin-4-one]	–	–
–	O=C1c2sc(-c3ccc(N4CC[C@@H](F)C4)nc3F)nc2CCN1c1cccnc1 [Compound 1, 2-[2-fluoro-6-[(3R)-3-fluoropyrrolidin-1-yl]-3-pyridyl]-5-(3-pyridyl)-6,7-dihydrothiazolo[5,4-c]pyridin-4-one]	> 1 µM	> 1 µM
